# Measured values reported in patent US8133905B2, “Biphenyl compounds useful as muscarinic receptor antagonists” (Theravance, Inc., priority 2005, dated 2012).
# Where a name gives a salt, the structure may show the parent alone.
# Assay: Dynamic moisture sorption (DMS) assessment
# Type: physicochemical
# Conditions: exposed to up to 90% RH
# Protocol: A dynamic moisture sorption (DMS) assessment (also known as a moisture sorption-desorption profile) was performed for samples of the crystalline diacetate salt using a VTI atmospheric microbalance, SGA-100 system (VTI Corp., Hialeah, Fla. 33016). A sample size of approximately 10 mg was used and the humidity was set at the ambient value at the start of the analysis. A typical DMS analysis consisted of three scans: ambient to 2% relative humidity (RH), 2% RH to 90% RH, 90% RH to 5% RH at a scan rate of 5% RH/step. The mass was measured every two minutes and the RH was changed to the next value (+/−5% RH) when the mass of the sample was stable to within 0.01% for 5 consecutive points.
row,weight gain in DMS trace (reversible sorption/desorption profile),SMILES
1,less than 18%,"CN(CCN1CCC(OC(=O)Nc2ccccc2-c2ccccc2)CC1)C(=O)c1cccc(C(=O)NCCNCc2ccc(O)cc2)c1 [crystalline diacetate salt, biphenyl-2-ylcarbamic acid 1-[2-({3-[2-(4-hydroxybenzylamino)ethylcarbamoyl]benzoyl}methylamino)ethyl]piperidin-4-yl ester]"
2,less than 14%,"CN(CCN1CCC(OC(=O)Nc2ccccc2-c2ccccc2)CC1)C(=O)c1cccc(C(=O)NCCNCc2ccc(O)cc2)c1 [crystalline monooxalate salt, Biphenyl-2-ylcarbamic Acid 1-[2-({3-[2-(4-Hydroxybenzylamino)ethylcarbamoyl]benzoyl}methylamino)ethyl]piperidin-4-yl Ester]"
3,less than 11%,"CN(CCN1CCC(OC(=O)Nc2ccccc2-c2ccccc2)CC1)C(=O)c1cccc(C(=O)NCCNCc2ccc(O)cc2)c1 [crystalline dipropionate salt, Biphenyl-2-ylcarbamic Acid 1-[2-({3-[2-(4-Hydroxybenzylamino)ethylcarbamoyl]benzoyl}methylamino)ethyl]piperidin-4-yl Ester]"
